Assay: UV absorbance of the dimers in ethanol compared with sinapoyl malate
Type: physicochemical
Details: 10 μmol·L^−1 in ethanol; for absorption band: FIG. 1
Source text: a. […] A change of the R3 radical can also affect these properties (FIG. 11).

Compound: COc1cc(/C=C/C(=O)OC(CC(=O)O)C(=O)O)cc(OC)c1O (stereo not drawn) [sinapoyl malate, reference compound]
- absorption band: 200-370 nm

Compound: CCOC(=O)C(=Cc1cc(OC)c(O)c(OC)c1)C(=Cc1cc(OC)c(O)c(OC)c1)C(=O)OCC [ethyl β-β disinapate]
- absorption band: 200-400 nm
- anti-UV properties (UV absorbance) compared with sinapoyl malate (FIGS. 1 to 16): higher anti-UV properties than sinapoyl malate
